Experimental data: PubChem BioAssay AID2060613 (Molecular Pharmacology Branch, DTP, NCI, 2025)
Where “and” joins values, the source holds several entries; their conditions need not be identical. Equal values may be shown once.

Test system: 233499-124-R-J3-PDC complex spheroid viability
Test: Anticancer human tumor 233499-124-R-J3-PDC patient-derived colon adenocarcinoma cell line growth inhibition [CLK]
Conditions: for viability, T/C: stronger effect = lower value
In short: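 Patient-derived tumor cells grown as complex spheroids with HUVEC endothelial cells and mesenchymal stem cells, treated with drug combinations. Concentrations descend in half-log steps from near clinical Cmax, or from 10 microM if Cmax unknown.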

[1] = curve of first compound, second compound 0.0316 µM
[2] = curve of first compound, second compound 0.1 µM
[3] = curve of first compound, second compound 0.316 µM
[4] = curve of first compound, second compound 1 µM
[5] = curve of first compound, second compound 3.16 µM
[6] = curve of first compound, second compound 10 µM
[7] = second compound 0.0316 µM, first compound 0.0316 µM
[8] = second compound 0.0316 µM, first compound 0.1 µM
[9] = second compound 0.0316 µM, first compound 0.316 µM
[10] = second compound 0.0316 µM, first compound 1 µM
[11] = second compound 0.0316 µM, first compound 3.16 µM
[12] = second compound 0.0316 µM, first compound 10 µM
[13] = second compound 0.1 µM, first compound 0.0316 µM
[14] = second compound 0.1 µM, first compound 0.1 µM
[15] = second compound 0.1 µM, first compound 0.316 µM
[16] = second compound 0.1 µM, first compound 1 µM
[17] = second compound 0.1 µM, first compound 3.16 µM
[18] = second compound 0.1 µM, first compound 10 µM
[19] = second compound 0.316 µM, first compound 0.0316 µM
[20] = second compound 0.316 µM, first compound 0.1 µM
[21] = second compound 0.316 µM, first compound 0.316 µM
[22] = second compound 0.316 µM, first compound 1 µM
[23] = second compound 0.316 µM, first compound 3.16 µM
[24] = second compound 0.316 µM, first compound 10 µM
[25] = second compound 1 µM, first compound 0.0316 µM
[26] = second compound 1 µM, first compound 0.1 µM
[27] = second compound 1 µM, first compound 0.316 µM
[28] = second compound 1 µM, first compound 1 µM
[29] = second compound 1 µM, first compound 3.16 µM
[30] = second compound 1 µM, first compound 10 µM
[31] = second compound 3.16 µM, first compound 0.0316 µM
[32] = second compound 3.16 µM, first compound 0.1 µM
[33] = second compound 3.16 µM, first compound 0.316 µM
[34] = second compound 3.16 µM, first compound 1 µM
[35] = second compound 3.16 µM, first compound 3.16 µM
[36] = second compound 3.16 µM, first compound 10 µM
[37] = second compound 10 µM, first compound 0.0316 µM
[38] = second compound 10 µM, first compound 0.1 µM
[39] = second compound 10 µM, first compound 0.316 µM
[40] = second compound 10 µM, first compound 1 µM
[41] = second compound 10 µM, first compound 3.16 µM
[42] = second compound 10 µM, first compound 10 µM
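Note: spheroids exposed to the drug combinations for seven days.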
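Throughout, for viability, T/C: percent viability relative to DMSO vehicle control wells taken as 100%.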

With `Nc1ccn(C2OC(CO)C(O)C2(F)F)c(=O)n1` (stereo not drawn) the viability, T/C (compound 0.0316 µM) was 100% and 98%, the viability, T/C (compound 0.1 µM) was 80.3% and 47.1% and the viability, T/C (compound 0.316 µM) was 39.9% and 22.4%. The viability, T/C (compound 1 µM) was 33.8% and 20.9%, the viability, T/C (compound 3.16 µM) was 38.9% and 21.9% and the viability, T/C (compound 10 µM) was 41.3% and 15.8%. For the same molecule, the IC50 (curve of compound) was 0.237 µM and 0.0936 µM.
`CC1(C)CCC(CN2CCN(c3ccc(C(=O)NS(=O)(=O)c4ccc(NCC5CCOCC5)c([N+](=O)[O-])c4)c(Oc4cnc5[nH]ccc5c4)c3)CC2)=C(c2ccc(Cl)cc2)C1` + CNC(=O)c1ccc(Nc2nc(OC3CCCC3)c3c(-c4ccc5nc(C)oc5c4)c[nH]c3n2)c(OC)c1 was tested, and the IC50 [1] was 6.79 µM, the IC50 [2] was 3.35 µM and the IC50 [3] was 3.14 µM. The IC50 [4] was 4.67 µM, the IC50 [5] was 2.87 µM and the IC50 [6] was 4.47 µM. The viability, T/C [7] was 79.5%, the viability, T/C [8] was 96.9% and the viability, T/C [9] was 94.3%. The viability, T/C [10] was 106%, the viability, T/C [11] was 96.5% and the viability, T/C [12] was 27.2%. For the same molecule, the viability, T/C [13] was 68.9%, the viability, T/C [14] was 70.2% and the viability, T/C [15] was 85%. For the same molecule, the viability, T/C [16] was 76.2%, the viability, T/C [17] was 51.6% and the viability, T/C [18] was 20.8%. The viability, T/C [19] was 76.4%, the viability, T/C [20] was 79.6% and the viability, T/C [21] was 81.3%. The viability, T/C [22] was 76.8%, the viability, T/C [23] was 49.9% and the viability, T/C [24] was 25.1%. It also gave a viability, T/C [25] of 74.3%, a viability, T/C [26] of 90% and a viability, T/C [27] of 72.1%. The viability, T/C [28] was 68.4%, the viability, T/C [29] was 60.1% and the viability, T/C [30] was 33.5%. It also gave a viability, T/C [31] of 77.1%, a viability, T/C [32] of 66.5% and a viability, T/C [33] of 76%. It also gave a viability, T/C [34] of 76.6%, a viability, T/C [35] of 47.8% and a viability, T/C [36] of 24.2%. For the same molecule, the viability, T/C [37] was 70.1%, the viability, T/C [38] was 71.9% and the viability, T/C [39] was 76.8%. The viability, T/C [40] was 74.9%, the viability, T/C [41] was 59% and the viability, T/C [42] was 29.2%.
With `C=CC(=O)N1CCN(c2nc(=O)n(-c3c(C)ccnc3C(C)C)c3nc(-c4c(O)cccc4F)c(F)cc23)C(C)C1` (stereo not drawn) the viability, T/C (compound 0.0316 µM) was 90.5% and 101%, the viability, T/C (compound 0.1 µM) was 81.9% and 87.6% and the viability, T/C (compound 0.316 µM) was 90.6% and 110%. For the same molecule, the viability, T/C (compound 1 µM) was 87.6% and 101%, the viability, T/C (compound 3.16 µM) was 95% and 104% and the viability, T/C (compound 10 µM) was 96% and 92.6%. It also gave an IC50 (curve of compound) of over 10 µM.
`COc1ccc([C@@H](O)c2cc(-c3ncnc4cc(N5CCOCC5)ccc34)c(F)cc2Cl)nn1` + CN1CCN(c2cc(C(=O)Nc3cc4cc(-c5cnn(C)c5)ccc4cn3)ccn2)CC1 was tested, and the IC50 [1] was over 10 µM, the IC50 [2] was 9.83 µM and the IC50 [3] was 8.5 µM. It also gave an IC50 [4] of under 0.0316 µM, an IC50 [5] of under 0.0316 µM and an IC50 [6] of under 0.0316 µM. For the same molecule, the viability, T/C [7] was 101%, the viability, T/C [8] was 99.3% and the viability, T/C [9] was 102%. It also gave a viability, T/C [10] of 105%, a viability, T/C [11] of 83% and a viability, T/C [12] of 56.7%. The viability, T/C [13] was 98.7%, the viability, T/C [14] was 95% and the viability, T/C [15] was 105%. It also gave a viability, T/C [16] of 93.7%, a viability, T/C [17] of 78.9% and a viability, T/C [18] of 49.5%. It also gave a viability, T/C [19] of 80.5%, a viability, T/C [20] of 92.5% and a viability, T/C [21] of 96%. It also gave a viability, T/C [22] of 88.3%, a viability, T/C [23] of 87.7% and a viability, T/C [24] of 43.8%. It also gave a viability, T/C [25] of 0.59%, a viability, T/C [26] of 0.54% and a viability, T/C [27] of 0.4%. The viability, T/C [28] was 0.92%, the viability, T/C [29] was 0.89% and the viability, T/C [30] was 0.79%. It also gave a viability, T/C [31] of 0.54%, a viability, T/C [32] of 0.7% and a viability, T/C [33] of 0.68%. For the same molecule, the viability, T/C [34] was 0.83%, the viability, T/C [35] was 0.94% and the viability, T/C [36] was 1.93%. For the same molecule, the viability, T/C [37] was 0.36%, the viability, T/C [38] was 0.41% and the viability, T/C [39] was 0.43%. The viability, T/C [40] was 0.46%, the viability, T/C [41] was 0.73% and the viability, T/C [42] was 1.14%.
